Measured values taken from patent US4122199A, “Amides of pyrrolidinoethylamine which can be used in treatment of coughs” (Pierre Fabre S.A., priority 1976, dated 1978).
Where a name gives a salt, the structure may show the parent alone. Read-outs that look alike come from different tables or passages of the source.

What was measured:
[1] = Hygroscopicity of crystals; assay type: physicochemical
guinea pigs = assay: Citric acid aerosol method on guinea pigs (antitussive); assay type: in vivo; details: orally, citric acid aerosol
Protocol: The animals were subjected to a 20% citric acid aerosol for 15 minutes.
The coughs were recorded by a microphone.
The products were administered intraperitoneally 20 minutes before the exposure to the aerosol.
Some derivatives were also tested orally.

in vivo = details: mouse, in vivo, mice, isotonic aqueous solution
Protocol: It is determined on mice, the products being administered orally, intraperitoneally, and intraveneously in isotonic aqueous solution.

[2] = Solubility characteristics; assay type: physicochemical

With `CCC(C(=O)NCCN1CCCC1)c1ccccc1` (stereo not drawn) [F 1419, N(2'-pyrrolidino-ethyl)-α-phenyl-α-ethyl acetamide hydrochloride] the Hygroscopicity [1] was “slightly hygroscopic”, the “% decrease in no. coughs in 15 mins.” value (guinea pigs; 50 mg/kg) was -22 and the “% decrease in no. coughs in 15 mins.” value (guinea pigs; 100 mg/kg) was -40. For the same compound, the LD50 (in vivo; ip, intraperitoneal, read-out: DL 50 intraperitoneal) was 200 mg/kg, the LD50 (in vivo; iv, intravenous, read-out: DL 50 intravenous) was 76 mg/kg and the LD50 (in vivo; po, oral, read-out: DL 50 oral) was 660 mg/kg. For the same compound, the “Solubility in N-methyl pyrrolidone” value ([2]; N-methyl pyrrolidone, % soluble) was 7%, the Solubility in ethanol ([2]; ethanol, % soluble) was 15% and the Solubility in ether ([2]; ether, in words) was “insoluble”. For the same compound, the “Solubility in propylene glycol” value ([2]; propylene glycol, % soluble) was 25% and the Solubility in water ([2]; water, in words) was “very soluble”.
